In patent publication US9408848B2, “Fluorescent CDK inhibitors for treatment of cancer” (Georgetown University, priority 2008, dated 2016):

Tests used:
[1] = test system: T1, CDK1/cyclinA (Homo sapiens); assay: Kinase assay ([γ-33P]-ATP, histone H1); assay type: biochemical; details: read-out: % inhibition of kinase activity, CDK1/cyclinA
T1 construct: purchased Millipore, Dundee, UK (screening service)
Protocol: (§1) The final reaction was carried out in a 25 μL solution.
(§2) Briefly assays were performed with a Biomek 2000 Laboratory Automation Workstation in a 96-well format (Beckman instruments, Palo Alto, Calif., U.S.A) for 40 min at ambient temperature in 25 μL incubations using [γ-^33P]-ATP. In a final reaction volume of 25 μL corresponding CDK/cyclin (h) (5-10 mU) was incubated with 8 mM MOPS pH 7.0, 0.2 mM EDTA, 0.1 mg/mL histone H1, 10 mM MgAcetate and [γ-^33P-ATP](specific activity approx. 500 cpm/pmol, concentration as required). The reaction was initiated by the addition of the MgATP mix. After incubation for 40 min at room temperature, the reaction was stopped by the addition of 5 μL of a 3% phosphoric acid solution.

[2] = target: T2, CDK1/cyclinB (Homo sapiens, UniProt P06493); assay: Kinase assay ([γ-33P]-ATP, histone H1); assay type: biochemical; details: compound 0.1 μM
T2 construct: purchased Millipore, Dundee, UK (screening service)
T2 sequence (P06493 whole entry): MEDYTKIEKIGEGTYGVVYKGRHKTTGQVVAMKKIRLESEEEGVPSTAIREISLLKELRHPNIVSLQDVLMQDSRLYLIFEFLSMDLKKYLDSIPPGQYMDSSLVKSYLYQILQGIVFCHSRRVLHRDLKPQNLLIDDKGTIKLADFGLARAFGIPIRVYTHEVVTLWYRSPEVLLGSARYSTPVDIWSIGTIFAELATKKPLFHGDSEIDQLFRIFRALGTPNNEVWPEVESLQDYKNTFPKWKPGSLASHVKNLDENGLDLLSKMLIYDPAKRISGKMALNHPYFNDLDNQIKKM
T2 sequence (P14635 whole entry partner): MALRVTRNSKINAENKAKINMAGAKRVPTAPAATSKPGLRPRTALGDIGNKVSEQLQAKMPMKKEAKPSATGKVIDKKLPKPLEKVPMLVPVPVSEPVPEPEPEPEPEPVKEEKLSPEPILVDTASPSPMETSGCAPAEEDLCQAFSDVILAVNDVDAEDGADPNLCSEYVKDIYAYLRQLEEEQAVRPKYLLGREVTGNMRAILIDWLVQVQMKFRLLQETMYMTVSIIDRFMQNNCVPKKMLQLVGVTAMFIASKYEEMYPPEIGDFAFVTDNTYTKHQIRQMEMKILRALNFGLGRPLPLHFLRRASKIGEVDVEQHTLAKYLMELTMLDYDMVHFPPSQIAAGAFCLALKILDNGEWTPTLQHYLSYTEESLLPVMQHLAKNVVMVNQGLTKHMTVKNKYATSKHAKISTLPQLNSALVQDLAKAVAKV
Protocol: as §1, §2

[3] = target: T3, CDK2/cyclinE (Homo sapiens, UniProt P24941); assay: Kinase assay ([γ-33P]-ATP, histone H1); assay type: biochemical; details: read-out: % inhibition of kinase activity, CDK2/cyclinE
T3 construct: purchased Millipore, Dundee, UK (screening service)
Protocol: as §1, §2

[4] = target: T4, CDK3/cyclinE (Homo sapiens, UniProt Q00526); assay: Kinase assay ([γ-33P]-ATP, histone H1); assay type: biochemical; details: read-out: % inhibition of kinase activity, CDK3/cyclinE
T4 construct: purchased Millipore, Dundee, UK (screening service)
Protocol: as §1, §2

[5] = target: T5, CDK7/cyclinH/MATI (Homo sapiens, UniProt P50613); assay: Kinase assay ([γ-33P]-ATP, histone H1); assay type: biochemical; details: read-out: % inhibition of kinase activity, CDK7/cyclinH/MATI
T5 construct: purchased Millipore, Dundee, UK (screening service)
T5 sequence (P50613 whole entry): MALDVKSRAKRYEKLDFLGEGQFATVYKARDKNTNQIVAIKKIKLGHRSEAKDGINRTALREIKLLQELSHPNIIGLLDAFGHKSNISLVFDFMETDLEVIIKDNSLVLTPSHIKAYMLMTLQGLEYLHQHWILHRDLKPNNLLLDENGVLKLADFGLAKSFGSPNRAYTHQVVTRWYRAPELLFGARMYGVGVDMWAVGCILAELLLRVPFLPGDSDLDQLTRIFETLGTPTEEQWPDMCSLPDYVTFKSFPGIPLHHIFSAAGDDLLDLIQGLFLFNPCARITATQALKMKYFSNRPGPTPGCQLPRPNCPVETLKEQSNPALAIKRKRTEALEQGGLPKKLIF
T5 sequence (P51946 whole entry partner): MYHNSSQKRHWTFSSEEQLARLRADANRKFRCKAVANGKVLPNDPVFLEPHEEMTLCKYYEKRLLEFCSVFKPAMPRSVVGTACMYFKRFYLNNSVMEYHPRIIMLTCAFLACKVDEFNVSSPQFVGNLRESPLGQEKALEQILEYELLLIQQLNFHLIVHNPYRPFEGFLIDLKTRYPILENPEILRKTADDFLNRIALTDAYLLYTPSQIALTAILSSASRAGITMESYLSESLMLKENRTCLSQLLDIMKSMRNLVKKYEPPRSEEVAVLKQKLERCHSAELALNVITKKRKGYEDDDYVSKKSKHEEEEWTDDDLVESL
T5 sequence (P51948 whole entry partner): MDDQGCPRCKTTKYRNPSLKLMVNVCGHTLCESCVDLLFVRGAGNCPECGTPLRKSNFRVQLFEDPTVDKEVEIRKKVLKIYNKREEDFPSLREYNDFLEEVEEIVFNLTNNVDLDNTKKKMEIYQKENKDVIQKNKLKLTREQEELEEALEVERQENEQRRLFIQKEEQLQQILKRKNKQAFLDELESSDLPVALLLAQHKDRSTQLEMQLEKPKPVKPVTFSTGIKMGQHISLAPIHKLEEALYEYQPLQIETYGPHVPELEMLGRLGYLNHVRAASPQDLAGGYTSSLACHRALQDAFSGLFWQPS
Protocol: . The final reaction was carried out in a 25 μL solution. The respective kinases (at […] were incubated with 8 mM MOPS (pH 7.0), 0.2 mM EDTA, 0.1 mg/ml histone H1, 10 mM MgAcetate and [γ-33P-ATP] (specific activity approximately 500 cpm/pmol, concentration as required). The reaction was then initiated by the addition of the MgATP mix. The reaction was stopped after 40 min of incubation by adding 5 μL of a 3% phosphoric acid solution. 10 μL of the reaction was spotted onto a P30 filter mat and washed 3 times for 5 min in 75 mM phosphoric acid and one in methanol prior to drying and counted radioactivity by scintillation counting. […]. Table 1 summarizes the cytotoxic effects of VMY compounds and its controls on breast cancer cell line.
as §2, with “Kinase selectivity of compounds VMY-1-101 and VMY-1-103 were screened at Millipore, Dundee, UK. Briefly” for “Briefly”, “solution. From the reaction, 10 μL was spotted onto a P30 filtermat and washed three times for 5 minutes in 75 mM phosphoric acid and once in methanol prior to dying and scintillation counting.” for “solution.”

[6] = test system: MCF-7; assay: Cell viability assay (WST-1); assay type: cell-based, human; details: Homo sapiens, MCF7, 48 h, read-out: IC50 (concentration yielding 50% growth inhibition)
Protocol: (§3) (10%), 2 mM L-glutamine, and 50 μg/mL each of antibiotics, namely penicillin, streptomycin, and neomycin at 37° C. in a humidified incubator containing 5% CO2
(§4) Briefly human breast cancer cells were seeded into a 96-well plate at 3000 cells per well in DMEM containing 10% FBS. Following 24 hours attachment period, compounds were dissolved in DMSO and serially diluted in tissue culture media and added to the cells in triplicate, and incubated for 48 h at 37° C. Control cells were treated with equal amount of DMSO. After 48 h incubation, cell viability was measured by WST-1 assay according to the manufacturer's instructions (Roche). […] The formazan absorbance, which correlates to the number of living cells, was measured at 450 nm and 630 nm as reference filter using a microplate reader. (Ultramark, Microplate Imaging System, Bio-Rad). The IC50 was calculated from the graph of the log of the compound concentration versus the fraction of the surviving cells.

[7] = test system: MDA-MB-231; assay: Cell viability assay (WST-1); assay type: cell-based, human; details: Homo sapiens, MDA-MB-231, 48 h, read-out: IC50 (concentration yielding 50% growth inhibition)
Protocol: as §3, §4

[8] = test system: MCF-7; assay: Cell cycle analysis by flow cytometry (propidium iodide); assay type: cell-based, human
Protocol: (§5) 5 μM concentrations were used for all drugs tested. The cells were exposed to the vehicle (DMSO) or […] of the CDK inhibitors for 24 hrs. The cell cycle distribution was then assessed using standard procedures.

[9] = test system: MDA-MB-231; assay: as above; assay type: cell-based, human
Protocol: as §5

[10] = test system: MDA-MB-231 cells; assay: Apoptotic signaling, Western blot of apoptosis related proteins; assay type: cell-based, human; details: MDA-MB-231, 10 μM, 48 hours
Protocol: In order to understand whether VMY-1-101 and VMY-1-103 compounds were able to induce apoptotic cell death, the expression of anti- and pro-apoptotic proteins in MDA-MB-231 cells following treatment with 10 μM drugs for 48 hours was evaluated first. […] This is further confirmed with proapoptotic 116 kDa poly (ADP-ribose) polymerase protein (PARP) into its 89-kDa fragments. […].
Western blotting was performed according to literature procedure. In brief, cell pellets were collected at the indicated times after treatment with compounds, suspended in 100 μL of lysis buffer (50 mM Tris-HCl, 150 mM NaCl, 1 mM EGTA, 1 mM EDTA, 20 mM NaF, 100 mM Na3VO4, 0.5% NP-40, 1% Triton X-100, 1 mM PMSF, 5 μg/ml aprotinin, 5 μg/ml leupeptin), vortexed twice and incubated in an ice bath for 30 min. Lysates were cleared by centrifugation at 12000 rpm for 15 min at 4° C. and protein was estimated by detergent compatible BCA protein assay kit (Pierce). Equivalent amounts of total proteins were resolved by SDS-PAGE (10%) and transferred to PVDF membrane. Membranes were blocked by 5% non-fat powdered milk in TBST overnight. Membranes were incubated with indicated primary antibodies for 2 hours followed by HRP-conjugated secondary antibodies for 1 hr and developed using enhanced chemiluminescence kit (Perkin Elmer).

## CC[C@H](CO)Nc1nc(Nc2ccc(C(=O)NCCNS(=O)(=O)c3cccc4c(N(C)C)cccc34)c(Cl)c2)c2ncn(C(C)C)c2n1 [VMY-1-101, 2-Chloro-N-[2-(5-dimethylamino-naphthalene-1-sulfonylamino)-ethyl]-4-[2-(1-hydroxymethyl-propylamino)-9-isopropyl-9H-purin-6-ylamino]-benzamide]
[1]
  inhibition at 0.1 µM: 62%
[2]
  inhibition at 0.1 µM: 16 ± 3%
[3]
  inhibition at 0.1 µM: 87%
[4]
  inhibition at 0.1 µM: 40 ± 3%
[5]
  inhibition at 0.1 µM: 57%
[6]
  IC50: 19.1 ± 1.14 µM
[7]
  IC50: 4.86 ± 1.24 µM
[8]; MCF-7, 5, 10 μM, 24 hrs
  effect on cell cycle progression (G2/M phase): induced the cell cycle progression in G2/M phase
[8]; MCF-7, 24 hrs, 5 μM
  % G1: 63.56 ± 1.20%
  % S: 10.75 ± 0.88%
  % Sub-G1: 2.08 ± 0.19%
[9]; MDA-MB-231, 5, 10 μM, 24 hrs
  effect on cell cycle progression (G2/M phase): induced the cell cycle progression in G2/M phase
[9]; MDA-MB-231, 24 hrs, 5 μM
  % G1: 51.5 ± 0.50%
  % S: 25.05 ± 0.45%
  % Sub-G1: 2.01 ± 0.19%
[10]
  PARP cleavage: moderate cleavage of the 116-kDa full length PARP into an 89-kDa fragment
  protein level of full length caspase 3 and 7: decrease in protein level of full length caspase 3 and 7
